Assay results taken from US20220340899A1, “STEREOSELECTIVE PH RESPONSIVE PEPTIDE DENDRIMERS FOR NUCLEIC ACID TRANSFECTION” (UNIVERSITÄT BERN, priority 2019, published 2022).
Bridges are numbered along the chain shown (N, C = ends). Roman numbers before positions name the chains, in order. Side-chain parts run from the residue outwards.

What was measured:
[1] = Vesicle leakage (carboxyfluorescein from phosphatidyl choline vesicles); settings: for fluorescein release from vesicles by free dendrimer: even at 1 μg/mL; for fluorescein release from vesicles after adding siRNA to 15 μg/mL reagent: siRNA 100 nM, N/P 10
Protocol: Vesicle Leakage: Egg yolk phosphatidylcholine (EYPC, Avanti Polar Lipids, Alablaster, USA) thin lipid layer was prepared by evaporating a solution of 100 mg in 4 mL MeOH/CHCl3 (1:1) on a rotary evaporator at room temperature and then in vacuo overnight. The resulting film was hydrated with 4 mL buffer A (50 mM 5(6)-carboxyfluorescein (CF, Sigma Aldrich, Buchs, CH), 10 mM TRIS, 10 mM NaCl, pH 7.4) for 30 min, subjected to freeze-thaw cycles (7 times) and extrusion (15 times) through a polycarbonate membrane (pore size 100 nm). Extra vesicular components were removed by gel filtration (Sephadex G-50) with buffer B (10 mM TRIS, 107 mM NaCl, pH 7.4). Final concentrations: ˜ 2.5 mM EYPC; inside: 50 mM CF, 10 mM TRIS, 10 mM NaCl, pH 7.4 buffer; outside: 10 mM TRIS, 107 mM NaCl, pH 7.4 buffer.
EYPC stock solutions (10 μL) were diluted to 700-792 μL with the buffer B (10 mM TRIS, 107 mM NaCl, pH 7.4) and placed in a fluorescence cuvette, thermostated (25° C.) and gently stirred (final concentration of EYPC 31 μM, 625 μM CF, 10 mM TRIS and 107 mM NaCl). Complexes were formed with siRNA in buffer B (80 μmol, 1.6 μL from a 50 μM Milli-Q water solution in 50 μL buffer) and peptide dendrimers (N/P ratio of 10, 1680 μmol, 12 μL from a 1 mg/mL Milli-Q water solution in 50 μL buffer B) or L2000 (w/w ratio of 2:1, 2.128 μg, 2.128 μL from the 1 mg/mL commercial solution in 50 μL buffer B) and incubated at room temperature for 30 minutes (100 μL, concentration of 800 nM siRNA and 16.8 μM i.e. 120 μg/mL peptide dendrimers or 21.28 μg/mL L2000). CF efflux was monitored on an Agilent Cary Eclipse fluorescence spectrophotometer at λex=492 nm and λem=517 nm as a function of time for 360 s. At t=30 s peptide dendrimers (0.8-12 μL from a 1 mg/mL Milli-Q water stock solution), L2000 (0.8-12 μL from the 1 mg/mL commercial solution) or complexes (100 μL from the complexes solutions described above) were added to the cuvette (final concentration of 0-100 nM siRNA and 0.14-2.1 μM/1-15 μg/mL peptide dendrimers or 1-15 μg/mL L2000). At t=270 s 1.2% Triton X-100 was added to the cuvette (50 μL, 0.07% final concentration). Fluorescence intensities were normalized to fractional emission intensity I(t) using I(t)=(It−I0)/(I∞−I0) where I0 is the intensity before addition of the peptide dendrimer, I∞ is intensity at saturation after lysis by Triton X-100.

Cy3-siRNA = test: Dialysis of Cy3-siRNA complexes through 100 kDa cutoff membrane; format: binding
Protocol: Dialysis: Complexes were formed with labelled Cy3-siRNA in OptiMEM (80 μmol, 1.6 μL from a 50 μM Milli-Q water solution in 50 μL OptiMEM pH 5 or pH 7.4) and peptide dendrimers (N/P ratio of 1-10, 168-1680 μmol, 1-14 μL from a 1 mg/mL Milli-Q water solution in 50 μL OptiMEM pH 5 or pH 7.4) or L2000 (w/w ratio of 2:1, 0.218-2.128 μg, 0.218-2.128 μL from the 1 mg/mL commercial solution in 50 μL OptiMEM pH 5 or pH 7.4) and incubated at room temperature for 30 minutes (100 μL, concentration of 80-800 nM Cy3-siRNA and 1.68-16.8 μM i.e. 12-120 μg/mL peptide dendrimers or 2.66-21.28 μg/mL L2000). The complexes were then diluted in OptiMEM pH 5 or pH 7.4 to a final volume of 800 μL (final concentration of 100 nM Cy3-siRNA and 0.210-2.1 μM i.e. 1.5-15 μg/mL peptide dendrimers or 0.266-2.66 μg/mL L2000). 500 μL of the complexes were added to Amicon Ultra 0.5 mL dialysis Eppendorfs with a 100 KDa cut-off (Sigma aldrich, Buchs, CH) and centrifugated at 14000 g for 10 minutes. For the second experiment, following centrifugation, lower compartment was replaced, 500 μL of OptiMEM at pH 5 or pH 7.4 was added to the Amicon Ultra 0.5 mL dialysis Eppendorfs top compartment and centrifuged one more time at 14000 g for 10 minutes. Then, 100 μL of the dialysed solutions from before dialysis, after dialysis and supplementary wash were transferred to a TPP 96-well plate (Faust Laborbedarf AG, Schaffhausen) and fluorescence measured at λex=547 nm and λem=563 nm on a Tecan Infinite M1000 Pro plate reader.

Substance	fluorescein release from vesicles by free dendrimer [1]	siRNA release after dialysis at pH 5 and re-equilibration to pH 7.4 (Cy3-siRNA)	fluorescein release from vesicles after adding siRNA to 15 μg/mL reagent [1]
(KL)8(KKL)4(KKL)2KLLLL [MH46]	much weaker	released its siRNA	
(KL)8(KKL)4(KLL)2KFFF [MH22]		released a significant amount of FAM-siRNA	entirely blocked fluorescein release from the vesicles
(KL)8(KKL)4(KLL)2KK(C16)K(C16) [MH13]		lower	reduced it very strongly
(KL)8(KKL)4(KLL)2KK(C26) [MH06]		lower	entirely blocked fluorescein release from the vesicles
(KL)8(KKL)4(KLL)2KLLLL [MH18]		released a significant amount of FAM-siRNA	at least to the level observed with only 1 μg/mL free dendrimer
(KL)8(KKL)4(KLL)2KNleNleNleNle [MH40]		released a significant amount of FAM-siRNA	reduced it very strongly
(KL)8(KLL)4(KLL)2KLLLL [MH47] (I: H-KLK([Leu-Lys])LLKLLKLLLL-NH2 / II: H-KLK([Leu-Lys])LLKLL / III: H-KLK([Leu-Lys])LL / IV: H-KLK([Leu-Lys])LL; amide I:6-IV:C, I:9-II:C, II:6-III:C; SMILES CC(C)C[C@H](NC(=O)[C@H](CC(C)C)NC(=O)[C@H](CC(C)C)NC(=O)[C@H](CC(C)C)NC(=O)[C@H](CCCCNC(=O)[C@H](CC(C)C)NC(=O)[C@H](CC(C)C)NC(=O)[C@H](CCCCNC(=O)[C@H](CC(C)C)NC(=O)[C@H](CC(C)C)NC(=O)[C@H](CCCCNC(=O)[C@H](CC(C)C)NC(=O)[C@@H](N)CCCCN)NC(=O)[C@H](CC(C)C)NC(=O)[C@@H](N)CCCCN)NC(=O)[C@H](CC(C)C)NC(=O)[C@H](CC(C)C)NC(=O)[C@H](CCCCNC(=O)[C@H](CC(C)C)NC(=O)[C@@H](N)CCCCN)NC(=O)[C@H](CC(C)C)NC(=O)[C@@H](N)CCCCN)NC(=O)[C@H](CC(C)C)NC(=O)[C@H](CC(C)C)NC(=O)[C@H](CCCCNC(=O)[C@H](CC(C)C)NC(=O)[C@H](CC(C)C)NC(=O)[C@H](CCCCNC(=O)[C@H](CC(C)C)NC(=O)[C@@H](N)CCCCN)NC(=O)[C@H](CC(C)C)NC(=O)[C@@H](N)CCCCN)NC(=O)[C@H](CC(C)C)NC(=O)[C@H](CC(C)C)NC(=O)[C@H](CCCCNC(=O)[C@H](CC(C)C)NC(=O)[C@@H](N)CCCCN)NC(=O)[C@H](CC(C)C)NC(=O)[C@@H](N)CCCCN)C(N)=O)	much weaker	very low	
(RL)8(KRL)4(KLL)2KLLLL [MH44]		very low	at least to the level observed with only 1 μg/mL free dendrimer
(kl)8(kkl)4(kll)2kk(C16)k(C16) [DMH13]		lower	reduced it very strongly
(kl)8(kkl)4(kll)2kllll [DMH18]		released a significant amount of FAM-siRNA	
